Source: PubChem BioAssay AID200 (DTP/NCI, 2004)
Several values for one entry are separate records, joined by “and”; a condition that tells them apart may be missing. Identical values can stand only once. Toxic doses and inconclusive results are not listed. The calls were made as follows: active = survival T/C of 150% or more; inactive = T/C below 125% in these data.

System: B6C3F1 mice, B16 melanoma ip, median survival T/C
Test: NCI In Vivo Anticancer Drug Screen. Data for tumor model B16 Melanoma (intraperitoneal) in B6C3F1 mice
Details: endpoint: median survival time, schedule: Q01DX009 (ip), higher = longer survival
Summary of the method: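 Values are T/C ratios: the measurement in treated animals divided by that in vehicle-treated controls, using survival or tumor size in mice carrying transplantable tumors.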

Measured: T/C

NC(CSCc1ccccc1)C(=O)Nc1ccc([N+](=O)[O-])cc1 (stereo not drawn)
inactive: dose: 100.0 mg/kg/injection, vehicle: Klucel (hydroxypropylcellulose) (HPC) 115 % of control | dose: 200.0 mg/kg/injection, vehicle: Klucel (hydroxypropylcellulose) (HPC) 111 % of control | dose: 400.0 mg/kg/injection, vehicle: Klucel (hydroxypropylcellulose) (HPC) 116 % of control

O=c1[nH]cccc1O
inactive: dose: 16.0 mg/kg/injection, vehicle: saline with Tween-80 101 % of control | dose: 32.0 mg/kg/injection, vehicle: saline with Tween-80 92 % of control | dose: 64.0 mg/kg/injection, vehicle: saline with Tween-80 93 % of control | dose: 128.0 mg/kg/injection, vehicle: saline with Tween-80 105 % of control | dose: 256.0 mg/kg/injection, vehicle: saline with Tween-80 99 % of control

CN(C)N=Nc1ccnc2ccc(Br)cc12
inactive: dose: 3.13 mg/kg/injection, vehicle: other 109 % of control | dose: 6.25 mg/kg/injection, vehicle: other 114 % of control | dose: 12.5 mg/kg/injection, vehicle: other 110 % of control | dose: 25.0 mg/kg/injection, vehicle: other 114 % of control | dose: 50.0 mg/kg/injection, vehicle: other 115 % of control

C=Cc1cc(OC)c2c(c1)c(=O)oc1c2cc(OC)c2c(O)ccc(C3OC(C)C(O)C(C)(O)C3O)c21 (stereo not drawn)
inactive: dose: 2.5 mg/kg/injection, vehicle: DMSO 120 % of control | dose: 5.0 mg/kg/injection, vehicle: DMSO 124 % of control and 103 % of control
active: dose: 20.0 mg/kg/injection, vehicle: DMSO 158 % of control | dose: 40.0 mg/kg/injection, vehicle: DMSO 169 % of control and 196 % of control | dose: 80.0 mg/kg/injection, vehicle: DMSO 207 % of control

c1ccc2c(NCCCCCCNc3c4ccccc4nc4ccccc34)c3ccccc3nc2c1
active: dose: 1.58 mg/kg/injection, vehicle: Klucel (hydroxypropylcellulose) (HPC) 154 % of control | dose: 2.37 mg/kg/injection, vehicle: Klucel (hydroxypropylcellulose) (HPC) 179 % of control | dose: 2.5 mg/kg/injection, vehicle: Klucel (hydroxypropylcellulose) (HPC) 151 % of control | dose: 5.0 mg/kg/injection, vehicle: Klucel (hydroxypropylcellulose) (HPC) 189 % of control | dose: 5.33 mg/kg/injection, vehicle: Klucel (hydroxypropylcellulose) (HPC) 213 % of control | dose: 8.0 mg/kg/injection, vehicle: Klucel (hydroxypropylcellulose) (HPC) 199 % of control | dose: 10.0 mg/kg/injection, vehicle: Klucel (hydroxypropylcellulose) (HPC) 200 % of control | dose: 10.0 mg/kg/injection, vehicle: water 153 % of control | dose: 12.0 mg/kg/injection, vehicle: Klucel (hydroxypropylcellulose) (HPC) 190 % of control | dose: 20.0 mg/kg/injection, vehicle: Klucel (hydroxypropylcellulose) (HPC) 206 % of control | dose: 20.0 mg/kg/injection, vehicle: water 162 % of control
inactive: dose: 0.62 mg/kg/injection, vehicle: Klucel (hydroxypropylcellulose) (HPC) 116 % of control | dose: 1.25 mg/kg/injection, vehicle: water 111 % of control and 116 % of control | dose: 2.5 mg/kg/injection, vehicle: water 112 % of control and 122 % of control | dose: 5.0 mg/kg/injection, vehicle: water 123 % of control
